# Laboratory results published in patent publication US6875757B2, “LPA receptor agonists and antagonists and methods of use” (University of Tennessee Research Foundation, priority 2000, dated 2005).
# Where two headings read alike, the source gives them in different places.
# How the values were obtained:
# Format in all cases: cell-based
# PSP24 PLGFR = PSP24 PLGFR (Xenopus laevis, UniProt P79945); experiment: Xenopus oocyte assay: LPA-induced oscillatory chloride currents (two-electrode voltage clamp); settings: for inhibition of LPA-induced chloride currents: Xenopus oocytes, extracellular application
# PSP24 PLGFR, sequence (P79945 whole entry): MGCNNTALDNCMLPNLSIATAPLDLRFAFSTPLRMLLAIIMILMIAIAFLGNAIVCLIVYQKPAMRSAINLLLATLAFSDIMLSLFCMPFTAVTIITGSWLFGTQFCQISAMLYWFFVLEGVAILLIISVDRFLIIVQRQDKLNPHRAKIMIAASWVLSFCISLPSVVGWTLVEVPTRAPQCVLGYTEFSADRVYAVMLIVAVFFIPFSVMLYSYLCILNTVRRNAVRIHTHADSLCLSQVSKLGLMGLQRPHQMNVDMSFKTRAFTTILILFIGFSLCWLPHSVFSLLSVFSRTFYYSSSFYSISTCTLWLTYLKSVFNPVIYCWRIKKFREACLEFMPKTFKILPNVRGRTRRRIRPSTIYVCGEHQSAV
# Procedure: Xenopus oocytes which endogenously express PSP24 PLGFR were used to screen the newly designed and synthesized compounds for their LPA inhibitory activity.
# (§1) Oocytes were obtained from xylazine-anesthetized adult Xenopus laevis frogs (Carolina Scientific, Burlington, N.C.) under aseptic conditions and prepared for experiment. […] Oocytes were kept in Barth's solution in an incubator between 17-20° C. and were used for 2-7 days after isolation.
# (§2) Electrophysiological recordings were carried out using a standard two-electrode voltage-clamp amplifier holding the membrane potential at −60 mV (GeneClamp 500, Axon Instruments, Calif.). […] Membrane currents were recorded with a NIC-310 digital oscilloscope (Nicolet, Madison, Wis.). Applications were made at intervals of 15 mins (minimum) to allow for the appropriate washout and recovery from desensitization.
# as §1
# as §2, with “CA).” for “Calif.).”
# [1] = tested on: PC-3 prostate cancer cell line; experiment: Cytotoxicity / growth inhibition (SRB), PC-3; settings: 96 hours drug exposure, read-out: IC50 ± SEM, PC-3
# Procedure: (§3) Cells were removed from stock flasks using trypsin, centrifuged, resuspended in fresh media, and plated at a density of approximately 2,000 cells/well in 96-well culture plates. Final drug concentrations ranged from 0.05 to either 10 or 50 μM. Control experiments with no drug added (negative control) and 5-fluorouracil added (positive control) were performed in parallel. Media was removed and replaced at 48 hours to minimize the effects of drug degradation during the course of the experiment. After 96 hours drug exposure, cells were fixed by the addition of cold 50% trichloroacetic acid (TCA) and incubation at 4° C. for 1 hour. Fixed cells were stained with sulforhodamine B (SRB), and cell number was determined by comparison of absorbance at 540 nm, as compared to a standard curve of cell number versus absorbance. Experiments were performed in duplicate.
# HEY ovarian cancer cells [2] = experiment: LPA-induced HEY ovarian cancer cell migration (cell motility); settings: compound 1 μM against 0.1 μM LPA
# Procedure: It is known that two LPA receptors, EDG-2 and EDG-7, are expressed in HEY ovarian cancer cells, so compounds 56, 56a, and 66 were evaluated for their ablity to inhibit LPA-induced cell motility (compound conc: 1 μM against 0.1 μM LPA conc:).
# HEY ovarian cells were maintained in RPMI 1640 medium with 2 mM L-glutamine (GIBCO BRL) supplemented with 10% fetal bovine serum (FBS, Hyclone). All cells were synchronized to the Go/G1 stage by growing them to confluency for 2 days. The cells were replated and harvested for experiments when cells were about 50-60% confluent on the flask. After removal of the cells from the flask, they were exposed for 5 min to 0.53 mM EDTA in PBS at 37° C. EDTA was neutralized with equal volume of RPMI 1640 plus 2 mM L-glutamine and 10% FBS. Cells were centrifuged at 800 rpm for 10 min at room temperature. Harvested cells were washed twice with RPMI 1640 with 2 mM L-glutamine medium and resuspended in the concentration of 1×10^6 cells/ml, and then rested for 1 hr at 37° C.
# A modified quantitative cell migration assay (Cat. # ECM500 from Chemicon, Temecula, Calif.) was used to test cell motility. The Chemicon chamber membrane was coated with fibronectin-containing pores of 8 microns in diameter. A 400 μl RPMI/2 mM L-glutamine containing either no inhibitors or inhibitors (1 μM) were pippetted into the lower chamber. About 5×10^4 cells in RPMI 1640/2 mM L-glutamine were added to the top chamber. The 24-well plates with inserts were incubated for 4 hours in a 5% CO2 incubator at 37° C. At the end of incubation, the chambers were removed to a fresh 24-well plate, and the cells on the inside chamber were removed by a swab several times and placed in the prepared Cell Stain Solution for 30 minutes at room temperature. At the end of incubation, Cell Stain Solution was removed from the wells. The chambers were washed 3 times with 1 mL PBS per well. After the final PBS wash, the chambers were examined to confirm proper cell morphology, and adherent cells were counted using an inverted microscope.
# [3] = tested on: LNCaP prostate cancer cell line; experiment: Cytotoxicity / growth inhibition (SRB), LNCaP; settings: 96 hours drug exposure, read-out: IC50 ± SEM, LNCaP
# Procedure: as §3
# [4] = tested on: DU-145 prostate cancer cell line; experiment: Cytotoxicity / growth inhibition (SRB), DU145; settings: read-out: IC50 ± SEM, DU145
# Procedure: as §3
# human Edg-2 = biological target: T1, human Edg-2 (Homo sapiens, UniProt Q92633); experiment: Ca2+ responses (Fura-2) in RH7777 cells expressing Edg-2; settings: 250 nM LPA 18:1 mixed with 10 μM lipid
# T1 construct: expressed in transfected cells
# T1 sequence (Q92633 whole entry): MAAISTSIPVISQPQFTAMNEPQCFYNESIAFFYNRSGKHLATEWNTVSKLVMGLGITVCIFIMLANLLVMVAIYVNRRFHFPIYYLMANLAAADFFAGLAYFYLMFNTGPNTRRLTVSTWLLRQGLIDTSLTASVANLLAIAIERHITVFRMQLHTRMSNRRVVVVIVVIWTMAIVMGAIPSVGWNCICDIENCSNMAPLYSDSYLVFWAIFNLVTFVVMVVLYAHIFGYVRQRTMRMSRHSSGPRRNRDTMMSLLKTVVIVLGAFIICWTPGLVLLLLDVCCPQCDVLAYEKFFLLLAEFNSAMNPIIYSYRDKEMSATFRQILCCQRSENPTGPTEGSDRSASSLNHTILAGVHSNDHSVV
# Procedure: (§4) RH7777 cells were transfected with the cDNA constructs encoding human Edg-2, Edg-4, or Edg-7 and then were subcloned into the pCDNA3 expression vector using the Cytofectene transfection reagent according to the manufacturers' protocol. Transfected cells were selected in DMEM containing 10% FBS and 1 mg/ml geneticin. Resistant cells were collected and subcloned by limiting dilution. The resulting clones were then screened using functional assays and RT-PCR analysis. Data are representative of three individual clones.
# HEY ovarian cancer cells [5] = experiment: Ca2+ responses in HEY ovarian cancer cells; settings: 100 nM LPA 18:1 mixed with 1 μM lipid
# Excerpt: Likewise, PA 8:0 inhibited the Ca^2+ response to 6% of control, whereas PA 18:1 had no effect. HEY express mRNA transcripts for Edg-1, -2, -5, -7 receptors (FIG. 34C).
# NIH3T3 cells = experiment: LPA-elicited proliferation of NIH3T3 cells (cell counting); settings: 5 μM LPA 18:1 mixed with 10 μM lipid, 24 hr
# Procedure: Proliferation of NIH3T3 cells was assessed by direct cell counting as previously described (Tigyi et al., 1999). NIH3T3 cells were plated in 24-well plates at a density of 10,000 cells/well, in DMEM containing 10% FBS. The following day, the cells were rinsed and serum starved in DMEM for 6 hr. Lipids were then added for 24 hr. Cell numbers were determined by counting in a Coulter counter (Coulter Electronics, Hialeah, Fla.).
# human Edg-7 = biological target: T2, human Edg-7 (Homo sapiens, UniProt Q9UBY5); experiment: Ca2+ responses (Fura-2) in RH7777 cells expressing Edg-7; settings: 250 nM LPA 18:1 mixed with 500 nM lipid
# T2 construct: Flag; expressed in transfected cells
# T2 sequence (Q9UBY5 1-353): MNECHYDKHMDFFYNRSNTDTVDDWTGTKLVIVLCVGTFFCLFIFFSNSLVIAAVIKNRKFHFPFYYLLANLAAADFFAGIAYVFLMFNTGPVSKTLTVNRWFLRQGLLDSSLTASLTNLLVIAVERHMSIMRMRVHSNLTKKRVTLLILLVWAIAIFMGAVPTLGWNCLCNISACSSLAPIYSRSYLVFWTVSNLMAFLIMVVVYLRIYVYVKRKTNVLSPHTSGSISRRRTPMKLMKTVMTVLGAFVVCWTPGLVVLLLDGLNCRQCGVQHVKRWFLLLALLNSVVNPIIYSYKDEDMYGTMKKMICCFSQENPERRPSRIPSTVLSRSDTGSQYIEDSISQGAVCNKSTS
# Procedure: as §4
# human Edg-4 = biological target: T3, human Edg-4 (Homo sapiens, UniProt Q9HBW0); experiment: Ca2+ responses (Fura-2) in RH7777 cells expressing Edg-4 (stable or transient); settings: stable Edg-4; 500 nM LPA 18:1 mixed with 5 μM lipid
# T3 construct: expressed in transfected cells
# T3 sequence (Q9HBW0 whole entry): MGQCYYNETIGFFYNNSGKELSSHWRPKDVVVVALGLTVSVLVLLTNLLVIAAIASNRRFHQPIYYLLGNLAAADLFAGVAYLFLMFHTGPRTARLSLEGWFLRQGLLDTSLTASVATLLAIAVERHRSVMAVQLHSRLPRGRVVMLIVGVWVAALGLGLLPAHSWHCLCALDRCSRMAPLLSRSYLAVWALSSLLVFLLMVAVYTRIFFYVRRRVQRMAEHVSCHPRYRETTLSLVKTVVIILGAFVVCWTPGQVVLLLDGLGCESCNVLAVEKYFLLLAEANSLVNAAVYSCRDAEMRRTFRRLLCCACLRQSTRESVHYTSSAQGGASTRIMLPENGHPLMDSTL
# Excerpt: RH7777 cells, stably expressing human Edg-4, were kindly provided by Dr. Kevin Lynch (University of Virginia, Charlottesville, Va.). Flag-tagged cDNA's encoding human Edg-4 and -7 inserted into the pCDNA3 expression plasmid (Invitrogen, Carlsbad, Calif.), were a generous gift from Dr. Junken Aoki (University of Tokyo, Tokyo, Japan). RH7777 and NIH3T3 cells were obtained from the American Type Culture Collection (Manassas, Va.). HEY cells were provided by Dr. Lisa Jennings (University of Tennessee, Memphis). All cell lines were maintained in Dulbecco's Modified Eagle's Medium (DMEM) containing 10% FBS and 2 mM glutamine. Oocytes were obtained from adult Xenopus laevis frogs as previously described (Tigyi et al., 1999).
# as §4
# RH7777 cells were plated on polylysine-coated glass coverslips (Bellco, Vineland, N.J.) one day prior to transfection. The following day, cells were transfected overnight (16-18 hr) with 1 μg of plasmid DNA mixed with 6 μl of Cytofectene. The cells were then rinsed twice with DMEM and cultured in DMEM containing 10% FBS. The next day, the cells were rinsed with DMEM and serum was withdrawn for a minimum of 2 hr prior to monitoring intracellular Ca^2+.
molecule,measurement,setting,value
2-Amino-3-(nonylamino)-3-oxopropyl dihydrogen phosphate [Compound 55],inhibition of LPA-induced response,PSP24 PLGFR; compound at 1 μM against 2 nM LPA,38%
same,IC50,[1],31.6 ± 9 µM
same,effect on LPA-induced cell motility,HEY ovarian cancer cells [2],potentiated the LPA-induced cell motility
same,IC50,[3],4.9 ± 2.6 µM
same,IC50,[4]; 96 hours drug exposure,24.9 ± 4.1 µM
"CCCCCCCCCCCCCCNC(=O)C(COP(=O)(O)O)NC(C)=O (centres unmarked) [Compound 56a, 2-(Acetylamino)-3-oxo-3-(tetradecylamino) propyl dihydrogen phosphate]",effect on LPA response when applied in combination with LPA,PSP24 PLGFR; applied in combination with LPA,enhanced the LPA response
same,response elicited by compound alone at 2 μM,"PSP24 PLGFR; compound alone, 2 μM",did not elicit a response
same,response elicited by compound alone at 10 μM,"PSP24 PLGFR; compound alone, 10 μM",able to elicit a response on its own
same,effect on LPA-induced cell motility,HEY ovarian cancer cells [2],potentiated the LPA-induced cell motility
same,IC50,[3],30.3 ± 7.9 µM
same,IC50,[4]; 96 hours drug exposure,0.7 ± 0.1 µM
"CCCCCCCCCCCCCCCCCCOCC(COP(=O)(O)O)OP(=O)(O)O (centres unmarked) [Compound 66, 1,2-(3-Octadecyloxypropane)-bis(dihydrogen phosphate)]",effect on LPA response after intracellular microinjection,"PSP24 PLGFR; 5 μM microinjected inside the cell, then extracellular LPA (10 nM)",failed to inhibit the LPA response
same,inhibition of LPA-induced chloride currents,PSP24 PLGFR,inhibitors of LPA-induced chloride current
same,reversibility of inhibition of LPA-induced chloride currents,PSP24 PLGFR; after washing the oocyte,reversible
same,effect on the LPA response at 5 μM,PSP24 PLGFR; compound at 5 μM,completely abolished the effect of LPA
same,IC50,[1],> 10 µM
same,inhibition at 1 µM,HEY ovarian cancer cells [2],~70%
same,IC50,"[3]; Homo sapiens, LNCaP",3.1 ± 3.2 µM
same,IC50,"[4]; Homo sapiens, DU-145, 96 hours drug exposure",> 10 µM
"CCCCCCCC(=O)OC[C@H](COP(=O)(O)OP(=O)(O)O)OC(=O)CCCCCCC [DGPP 18:1, diacylglycerol pyrophosphate]",inhibitory effect on LPA-elicited Ca2+ response,human Edg-2,no longer had an inhibitory effect
same,effect on LPA-elicited Ca2+ response,HEY ovarian cancer cells [5],had no effect
same,effect on LPA-induced proliferation,NIH3T3 cells,"Neither DGPP 18:1, nor long- and short-chain PA and DAG had an effect"
same,effect on LPA-elicited Ca2+ responses,human Edg-7,no longer inhibitors of Edg-7
Phosphatidic acid [PA 8:0],"Ca2+ response, % of control",human Edg-2,19 % of control
same,"LPA-elicited Ca2+ response, % of control",HEY ovarian cancer cells [5],6 % of control
same,inhibition of LPA-induced chloride currents,PSP24 PLGFR,effective at inhibiting the LPA-elicited responses
same,effect on LPA-induced proliferation,NIH3T3 cells,had no significant inhibition
same,"Ca2+ responses, % of control",human Edg-4,162 % of control
same,inhibition of the Ca2+ responses,human Edg-7,56%
